According to patent publication US20200345725A1, “Methods and Compositions for Treating Cancer” (Omeros Corporation, priority 2019, published 2020):

Columns and labels:
Format in all cases: cell-based
[1] = system: purified human T cells; assay: Suppression of cytokine production from purified human T cells by PS liposomes and NECA (MesoScale Discovery); conditions: purified human CD3+ T cells, 24 hours, PS liposomes 1 μM, NECA
Description: Purified human T cells (untouched total T cells, Astarte Biologies, Inc., CD3+ T cells in FIGS. 72A and 72B and CD8+ T cells in FIG. 72C) were stimulated in quadruplicate at 100,000 cells per well in 96-well flat bottom plates and X-vivo 15 media with the following reagents:
ImmunoCult™ Human CD3/CD28 T Cell Activator (StemCell) (1:50 dilution)
PS liposomes (1 μM) or media control
Adenosine receptor agonist (NECA, 0.1 μM or 0.05 μM) or media control
A combination of both reagents.
After 24 hours of culture (44 hours for the results shown in FIG. 72C), culture media was analyzed for cytokines (MesoScale Discovery).

[2] = system: mouse splenocytes; assay: IL-2 levels in supernatants of cultured mouse splenocytes (WT or GPR174-KO) stimulated with anti-CD3 and anti-CD28, MSD platform; conditions: 2 days
Description: To make single cell suspensions from mouse splenocytes, spleens were cut into 1-2 mm^3 pieces with a razor blade and incubated at 37° C. with 10 μg/mL DNase and 1 mg/mL Collagenase D with agitation for 90 min. Spleen fragments and cells were then pressed through a nylon screen, and the resulting cell suspension was washed. In 96-well flat-bottom plates, splenocytes were cultured in quadruplicate with the following conditions for 2 days, after which supernatants were tested for cytokine levels with the MSD platform.
Anti-CD3 (clone 2C11; 0.1 μg/mL)
GPR174 inhibitor (compound 10, 1 μM or 0.3 μM, or DMSO vehicle control)
GPR174 inhibitor (compound 6, 0.3 μM, or DMSO vehicle control)
Adenosine receptor agonist (NECA, 0.1 μM)

[3] = system: human PBMC; assay: IL-2 in supernatants of human PBMC stimulated with anti-CD3 and anti-CD28, ELISA; conditions: human PBMC donor 8, 24 hours post-stimulation; compound 10 1 μM, ZM-241385 0.1 μM, APCP 10 μM; FIG. 71
Description: Human PBMCs, obtained from a human volunteer donor (donor 8), were dispensed in X-vivo15 media (Lonza) supplemented with Glutamax, penicillin and streptomycin, at density of 1×10^6 cells/well in a 96-well flat-bottom plate and were cultured in quadruplicate for 3 hours in the presence of:
GPR174 inhibitory compound 10 (1 μM);
CD73 inhibitory compound, adenosine 5′-(a,p-methylene)diphosphate sodium salt (APCP, Tocris, 10 μM);
Combinations of the above agents;
After which 1 μg/mL anti-CD3 antibody (UCHT1) and 0.1 μg/mL anti-CD28 antibody (CD28.2) were added to activate T cells. Supernatants from these cells were collected at 24 hours post-stimulation and the levels of IL-2 were determined by ELISA.

[4] = system: CHRM1; assay: CRA against CHRM1
Source text: (§1) The inventors used a CRA similar to that described in U.S. Pat. No. 7,309,576 and O'Dowd et al., J. Biomol. Screen. 12:175-85, 2007 to identify compounds that are capable of interacting with GPR174 using a library of approximately 370,000 chemical entities. Briefly described, the CRA assay described in U.S. Pat. No. 7,309,576 involves artificially inserting a NLS into the dopamine D1 receptor (DRD1), which allows the receptor to traffic from the cell membrane to the cell interior, and that the binding of antagonists to the receptor retained the receptor at the cell surface, while removal of the ligand allowed the receptor to continue to internalize from the cell surface. Both antagonists and agonists that selectively bound the receptor retained the receptor on the plasma membrane. GPR174 constructs were generated for use in a CRA-based compound screening assay. From this screen, the inventors initially identified compounds of formula I-VI, as described herein and included in Table 1.
The inventors also sought to validate that the compounds identified using the CRA are modulatory compounds. To this end, the above-described CRA was used to screen a library for compounds that interact with three control non-orphan receptors, and the results of this screen were compared to the results of screening the same library for compound that were identified using a Fluorometric Imaging Plate Reader (FLIPR) assay, a conventional technique commonly used to identify compounds interacting with non-orphan GPCRs signaling through Ca^++. Three non-orphan GPCRs—Muscarinic acetylcholine receptor M1 (CHRM1), Adrenergic receptor alpha 1a (ADRA1a), and Neuropeptide S receptor (NPSR)—were screened against a 10,000-compound GPCR-focused library. Thirty interacting compound “hits” were identified using the CRA, and eighty-one hits were identified using the FLIPR for the CHRM1 receptor; 9 CRA hits and 29 FLIPR hits for the NPS receptor were identified; and 110 CRA hits and 110 FLIPR hits for ADRA1a.
In addition, the CRA can also provide the relative potencies of compounds against the target receptor.

[5] = target: T1, GPR174 (Homo sapiens, UniProt Q9BXC1); assay: Cellular redistribution assay (CRA) for GPR174
Source text: One method for identifying compounds capable of modulating a receptor is using a cellular redistribution assay (“CRA”). Exemplary CRA methods are found in U.S. Pat. No. 7,309,576 issued to O'Dowd et al. and in O'Dowd et al., J. Biomol. Screen. 12:175-85,2007. […] Incorporation of the NLS alters the cellular localization of the GPCR, such that the majority of the NLS-modified receptor is present in the cell interior. An NLS-modified GPCR, when interacting with a functionally active compound, is mostly localized on the cell surface. Thus, it becomes possible to identify receptor modulators without knowledge of the endogenous ligand or a surrogate ligand.
The inventors have identified a number of compounds that inhibit GPR174 using a CRA assay similar to that described in U.S. Pat. No. 7,309,576 and in O'Dowd et al., J. Biomol. Screen. 12:175-85, 2007. These compounds are described in detail below.
as §1
Target sequence in this assay (Q9BXC1 1-292 limits assumed): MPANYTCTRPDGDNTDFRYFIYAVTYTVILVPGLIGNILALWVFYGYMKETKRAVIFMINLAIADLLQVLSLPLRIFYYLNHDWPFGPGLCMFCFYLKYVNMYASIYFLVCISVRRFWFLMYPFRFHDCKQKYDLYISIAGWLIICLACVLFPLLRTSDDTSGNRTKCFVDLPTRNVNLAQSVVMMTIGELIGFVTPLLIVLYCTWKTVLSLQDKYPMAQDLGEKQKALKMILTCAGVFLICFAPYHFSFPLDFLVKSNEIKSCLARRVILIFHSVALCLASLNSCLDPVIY

[6] = target: T2, ADBR2 (Homo sapiens, UniProt P07550); assay: CRE-Luc reporter assay with control receptor ADBR2
T2 construct: host or cells: HEK293 or CHO cell lines (ATCC)
Description: The DNA/lipofectamine 2000 mix (3000 μL) was incubated at room temperature for 30 minutes and then added into a 10 cm culture dish (Corning, NY) containing 70-90% confluent cultured cells, (HEK293 or CHO cell lines (ATCC, VA)), in 15 mL of media. […] The cells were further incubated at 37° C. for various times. The media were removed and the cells lysed.
Compounds were tested in the reporter system with increasing concentrations of GPR174-interacting compounds.
The DNA/lipofectamine 2000 mix (3000 μL) was incubated at room temperature for 30 minutes and then added into a 10 cm culture dish (Corning, NY) containing 70-90% confluent cultured cells, typically HEK293 or CHO cell lines (ATCC, VA), in 15 mL of media. […] Media (26 mL) were added to the detached cells and 120 μL of transfected cells were transferred to each well on a 96-well plate. Increasing concentration of each compound in DMSO (1.2 μl) was added to the cells after plating into the 96-well plate. The cells were further incubated at 37° C. for various times. The media were removed, and the cells lysed.
ADBR2 is a GPCR, like GPR174, that activates the Gs signaling pathway.

[7] = target: T1, GPR174; assay: GloSensor cAMP assay with GPR174, with or without agonist LysoPS; parameters: host or cells: HEK293 or CHO cell lines (ATCC)
Description: In order to confirm that GPR174 interacting compound 4 is an antagonist of GPR174-mediated Gs signaling, a GloSensor assay was carried out with increasing concentrations of compound 4 in the presence or absence of a fixed concentration (1 μM) of the GPR174 agonist LysoPS as follows.
The DNA/lipofectamine 2000 mix (3000 μL) was incubated at room temperature for 30 minutes and then added into a 10 cm culture dish (Corning, NY) containing 70-90% confluent cultured cells, typically HEK293 or CHO cell lines (ATCC, VA), in 15 mL of media. […] Media (26 mL) was added to the detached cells and 100 μL of transfected cells were transferred to each well on a 96-well plate. The cells were further incubated at 37° C. overnight. The following day, the media were removed and 100 μl of equilibration media (Promega) was added to each well to the manufacturer's directions. The cells were then incubated at room temperature for 2 hours and the cell plates were pre-read with a SpectraMax L (Molecular Devices, CA). After the pre-read, increasing concentrations of each compound in DMSO (1.0 μl) was added to the cells. The cell plates containing the compound were read immediately after the compound was added and at various times up to 30 minutes after the addition of the compound with a SpectraMax L (Molecular Devices, CA). Data were analyzed with either Excel (Microsoft, WA) or Prism 4.03 (GraphPad, CA).
Target sequence in this assay (Q9BXC1 whole entry, species assumed): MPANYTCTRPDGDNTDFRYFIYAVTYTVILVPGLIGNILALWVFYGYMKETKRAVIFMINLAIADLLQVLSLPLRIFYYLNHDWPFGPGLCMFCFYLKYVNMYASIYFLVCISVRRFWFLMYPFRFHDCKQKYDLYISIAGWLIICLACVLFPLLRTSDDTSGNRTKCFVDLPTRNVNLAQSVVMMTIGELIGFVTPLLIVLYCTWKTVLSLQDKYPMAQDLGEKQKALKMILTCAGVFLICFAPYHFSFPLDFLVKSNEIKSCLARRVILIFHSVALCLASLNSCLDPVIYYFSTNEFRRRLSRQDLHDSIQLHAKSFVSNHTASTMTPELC

[8] = target: T1, GPR174; assay: CRE-Luc reporter Gs signaling assay with GPR174; parameters: host or cells: HEK293 or CHO cell lines (ATCC); conditions: for Human GPR174 CRE Activity: nature of the compound (IA, antagonist, NM): pCRE-Luc reporter
Target sequence in this assay (Q9BXC1 whole entry): as the sequence (Q9BXC1 whole entry, species assumed) above

[9] = target: T2, ADBR2; assay: GloSensor cAMP assay with ADBR2
[10] = target: T3, wild-type GPR174 (Homo sapiens, UniProt Q9BXC1); assay: GloSensor Gs signaling by phospholipids, HEK293 cells expressing wild-type GPR174; conditions: 10 nM to 10,000 nM
T3 construct: expressed in transfected cells; host or cells: HEK293
T3 sequence (Q9BXC1 whole entry): as the sequence (Q9BXC1 whole entry, species assumed) above
Description: (§2) Unilamellar liposomes of phosphatidylserine (PS) and other phospholipids were prepared by hydration in PBS and extrusion at 50-54° C. through a 0.1 micron filter using a mini-extruder (Avanti). Lysophosphatidylserine (Lyso-PS) is soluble.
(§3) HEK293 cells were grown in 6-well plates and transfected using Lipofectamine 2000 (Thermo Fisher Scientific) with 300 ng/well of cAMP biosensor expressing plasmid pGlo22F (Promega) and 2 ng of a plasmid expressing wild-type GPR174 or 2 ng of a plasmid expressing a GPR174 mutant with lowered basal activity, referred to as “GPR174-v38.”
5-6 hours after transfection, the cells were trypsinized and plated at a density of 5000 cells/well into 96-well plates and incubated overnight. The next day, the culture medium was replaced with 100 μL/well of serum free medium X-vivo15 (Lonza) with 2% GloSensor Assay reagent (Promega). The plates were incubated for 1 hour at room temperature and measured in a luminometer to obtain the pre-compound values. […] The plates were measured in a luminometer to obtain the post-compound addition measurement. The ratio of post-compound addition to pre-compound addition measurements (i.e., the extent of Glosensor signal induction by an agonist) was determined. […]

[11] = target: GPR174-v38 (Homo sapiens, UniProt Q9BXC1); assay: GloSensor Gs signaling by phospholipids, HEK293 cells expressing mutant GPR174-v38; conditions: 10 nM to 10,000 nM
Description: as §2, §3
5-6 hours after transfection, the cells were trypsinized and plated at a density of 5000 cells/well into 96-well plates and incubated overnight. The next day, the culture medium was replaced with 100 μL/well of serum free medium X-vivo15 (Lonza) with 2% GloSensor Assay reagent (Promega). The plates were incubated for 1 hour at room temperature and measured in a luminometer to obtain the pre-compound values. […] The plates were measured in a luminometer to obtain the post-compound addition measurement. The ratio of post-compound addition to pre-compound addition measurements (i.e., the extent of Glosensor signal induction by an agonist) was determined.

CCNC(=O)[C@H]1O[C@@H](n2cnc3c(N)ncnc32)[C@H](O)[C@@H]1O [NECA]
IL-2 FC vs Media ([1]; FIG. 72A): 0.42 fold change
IFN-γ FC vs Media ([1]; FIG. 72B): 0.31 fold change

Nc1nc(NCCc2ccc(O)cc2)nc2nc(-c3ccco3)nn12 [ZM-241385]
increase of IL-2 levels ([2]; GPR174-KO splenocytes, no NECA, ZM-241385 0.1 μM, FIG. 68B): 1.3 fold
increase of IL-2 levels ([2]; WT splenocytes, NECA 0.1 μM, compounds 10, 6 0.3 μM, ZM-241385 0.2 μM, FIG. 69): 2 fold
increase of IL-2 levels ([2]; WT splenocytes, no NECA, compound 10 1 μM, ZM-241385 0.1 μM, FIG. 68A): 1.3 fold
increase of IL-2 levels [3]: 1.4 fold

CCCC(=O)c1ccc(N2CCN(S(=O)(=O)c3ccc(C)cc3)CC2)c(F)c1 [compound 4]
activity against CHRM1 in the CRA (FIG. 5B) [4]: do not show any activity
dose-response curve against GPR174 in the CRA (FIG. 5A) [5]: show a dose-response curve
Gs pathway in the presence of ADBR2 (CRE-Luc reporter) [6]: did not modulate
competition with the GPR174 agonist LysoPS (GloSensor, FIG. 21A) ([7]; LysoPS fixed at 1 μM): does compete
Gs pathway in the presence of GPR174 (GloSensor, FIG. 21A) ([7]; compound alone): does not modulate
Gs pathway in the presence of GPR174 (CRE-Luc reporter) ([8]; increasing concentrations of compound): did not modulate
Human GPR174 CRE Activity: nature of the compound (IA, antagonist, NM) [8]: GPR174 antagonist
Human GPR174 CRE Activity: nature of the compound (IA, antagonist, NM) ([8]; listed as Compound 4): GPR174 antagonist
Gs signaling in the presence of ADBR (GloSensor, FIG. 21B) [9]: neither compound 4 nor LysoPS modulate Gs signaling

adenosine 5′-(a,p-methylene)diphosphate sodium salt [APCP]
increase of IL-2 levels [3]: 1.5 fold

lysophosphatidylserine [LysoPS]
Gs signaling in the presence of ADBR (GloSensor, FIG. 21B) [9]: neither compound 4 nor LysoPS modulate Gs signaling
GPR174 Gs signaling, wild-type GPR174 (FIG. 45A) [10]: stimulate GPR174 Gs signaling in a concentration-dependent manner
GPR174 Gs signaling, mutant GPR174-v38 (FIG. 45B) [11]: stimulate GPR174 Gs signaling in a concentration-dependent manner
